# Reference: US20250186592A1, “TETRAZINE CONJUGATES FOR IN VIVO TARGETED DELIVERY OF A PAYLOAD” (Tambo, Inc., priority 2021, published 2025)
# Square brackets hold non-standard residues; d marks the D form. Peptide text beside a SMILES is read from it. * marks the point of attachment. Dolaproine = CO[C@@H]([C@@H]1CCCN1)[C@@H](C)C(=O)O; Dil = CC[C@H](C)[C@H](NC)[C@@H](CC(=O)O)OC; X1 = C[C@@H](N*)[C@@H](O)c1ccccc1; NMeV = CN[C@H](C(=O)O)C(C)C
# Experiments:
# [1] = LCMS analysis of drug release by tetrazines; conditions: tetrazine 20 μM, TCO-MMAE 10 μM in PBS
# Method: A solution of each tetrazine (20 μM final concentration) in PBS is mixed with TCO-MMAE (10 μM final concentration). The solution is mixed thoroughly and an aliquot removed at the appropriate time for analysis by LCMS.
# NCI-N87 xenograft = assay: Efficacy study in subcutaneous NCI-N87 xenograft model in CB17 SCID mice; format: in vivo, mice (Mus musculus); conditions: for TGI: P<0.05 vs vehicle; for mean tumor size on day 35: vehicle 1009 mm^3
# Method: Methods: 110 CB17 SCID female mice (Mus musculus; age: 6-8 weeks; body weight: 18-22 g; Shanghai LingChang Biotech Co., LTD) were inoculated subcutaneously at right flank with NCI-N87 cells (3×10^6 cells was suspended in 0.2 mL mixture of 1640 with (1640: Matrigel=1:1) BD Matrigel for tumor development). After 7 days inoculation, 70 animals were divided into 8 groups with 10 animals in group 1, 2, 5, 6, 7 and 8, and with 5 animals in group 3 and 4 using stratified random grouping based on their body weight and tumor volume. The treatments were started from the mean tumor size reached to 158 mm^3 (106-221 mm^3) for these 70 mice. Group 1: Vehicle, i.v., QD×3×2 weeks. Group 2: MMAE, 0.25 mpk, i.v., QW×2 weeks. […] Group 4: Compound A, 20 mpk, i.v., QD×3×2 weeks. […] Group 7: SQL70, 100 μL, i.t.×1 dose+Compound A, 1.9 mpk, i.v., QD×5. Group 8: T-DM1, 3 mpk, i.v., QW×2 weeks. The tumor sizes and body weight were measured twice a week during the treatment. The dosing schedule was finished on day PG-D10. The entire study was terminated on PG-D37 and collected all the tumor samples for group 5 and 6, and 3 tumors/group for group 1 and 2.
# Experimental Methods and Procedures: Cell preparation and implantation: The NCI-N87 (Gastric carcinoma, ATCC® CRL-5822™, Lot No. 7686255) cells were maintained in vitro as a monolayer culture in RPMI-1640 medium supplemented with 10% heat inactivated fetal bovine serum, 100 U/mL penicillin and 100 μg/mL streptomycin at 37° C. in an atmosphere of 5% CO2 in air. The tumor cells were routinely sub-cultured per 5 days by trypsin-EDTA treatment. The cultured NCI-N87 cells were harvested, re-suspended in base medium at a density of 1.5×10^7 cells/mL with viability >90%. Each mouse was inoculated subcutaneously at the right flank with 3×10^6 in 0.2 mL mixture of 1640 with (1640: Matrigel=1:1) BD Matrigel for tumor development.
# Randomization and administration: The treatments were started from the mice were grouped based on their mean tumor size reached 158 mm^3 (106-221 mm^3) for group 1-8. Each group consisted of 10 or 5 mice. The test article was administrated to the mice according to the regimen as shown in the experimental design table (Table 4).
# Tumor Measurements and Endpoints: The major endpoint is to see if the tumor growth can be delayed or mice can be cured. […] The tumor sizes were then used for the calculations of both tumor growth inhibition (TGI) values.
# The T/C value (in percent) is an indication of antitumor effectiveness, T/C (%)=RTVTreatment/RTVControl×100% (RTVTreatment: the mean RTV of the treatment group; RTVControl: the mean RTV of the vehicle treated group). RTV (relative tumor volume)=TVDayN/TVDay0. TVDayN and TVDay0 is the tumor volume on day N and Day 0 respectively. T/C (%)≤42% is considered as significant antitumor activity and <10% is considered as highly significant antitumor activity by the United States National Cancer Institute criteria.
# Statistical Analysis: The tumor volume between different groups was analyzed by two-way repeated measures ANOVA followed by the Tukey's post hoc test. All data were analyzed using GraphPad Prism 6.0. P<0.05 is considered to be statistically significant.
# [2] = Group 4: Compound A 20 mpk i.v. QD×3×2 weeks, day 35
# [3] = Group 2: MMAE 0.25 mpk i.v. QW×2 weeks, day 35
Compound,% TCO-MMAE consumed (1 h) [1],% MMAE released (24 h) [1],other results
Cc1nnc(-c2ncccn2)nn1,100%,29%,
Cc1nnc(-c2cn(C)cn2)nn1,74%,40%,
Cc1nnc(-c2cocn2)nn1,42%,62%,
Cc1nnc(-c2ccc(C(F)(F)F)c(CN)c2)nn1,100%,46%,
Cc1nnc(-c2ccc(CN)c(C(F)(F)F)c2)nn1,100%,51%,
Cc1nnc(-c2ccccn2)nn1,100%,28%,
Cc1nnc(-n2cccn2)nn1,81%,35%,
CC[C@H](C)[C@@H](C(CC(=O)N1CCC[C@H]1[C@H](OC)[C@@H](C)C(=O)N[C@H](C)[C@@H](O)c1ccccc1)OC)N(C)C(=O)[C@@H](NC(=O)[C@H](C(C)C)N(C)C(=O)O[C@H]1/C=C/CC[C@@](C)(C(=O)O)CC1)C(C)C (stereo partly drawn) [Compound A],,,"T/C (NCI-N87 xenograft; [2]): 62.12%; TGI (NCI-N87 xenograft; [2]): 41.74%; mean tumor size on day 35 (NCI-N87 xenograft; Group 4: Compound A 20 mpk i.v. QD×3×2 weeks, day 35 after grouping): 653 mm^3"
CC[C@H](C)[C@@H]([C@@H](CC(=O)N1CCC[C@H]1[C@H](OC)[C@@H](C)C(=O)N[C@H](C)[C@@H](O)c1ccccc1)OC)N(C)C(=O)[C@@H](NC(=O)[C@@H](NC)C(C)C)C(C)C [MMAE] (H-[NMeV]V[Dil][Dolaproine]-X1),,,"T/C (NCI-N87 xenograft; [3]): 57.50%; TGI (NCI-N87 xenograft; [3]): 49.68%; mean tumor size on day 35 (NCI-N87 xenograft; Group 2: MMAE 0.25 mpk i.v. QW×2 weeks, day 35 after grouping): 586 mm^3"
T-DM1,,,"mean tumor size on day 35 (NCI-N87 xenograft; Group 8: T-DM1 3 mpk i.v. QW×2 weeks, day 35): 873 mm^3"
